The source of these data is patent EP1928842B1, “4-PHENYL-6-SUBSTITUTED-PYRIMIDINE-2-CARBONITRILE DERIVATIVES” (priority 2005, dated 2007).

The target of the experiment is T1, recombinant human Cathepsin K (Homo sapiens, UniProt P43235).
T1 sequence (P43235 115-329): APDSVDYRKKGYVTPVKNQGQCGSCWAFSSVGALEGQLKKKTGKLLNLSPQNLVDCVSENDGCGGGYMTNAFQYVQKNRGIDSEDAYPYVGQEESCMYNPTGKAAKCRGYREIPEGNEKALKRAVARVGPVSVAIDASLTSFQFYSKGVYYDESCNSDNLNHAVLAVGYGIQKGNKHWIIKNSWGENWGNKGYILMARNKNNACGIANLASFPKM
The experiment in a line: Cathepsin K activity: inhibition of recombinant human Cathepsin K (fluorogenic substrate Z-Phe-Arg-AMC). Type of experiment: biochemical. As to conditions: sodium acetate pH5.5, fluorescence at 10 minutes, read-out: pIC50 (negative logarithm of the IC50 concentration) for inhibition of human cathepsin K (converted). The protocol: 10µl of a 1mg/l solution of activated recombinant human cathepsin K, in assay buffer, is then added to the well, yielding a final inhibitor concentration of 10µM. • Enzyme activity is determined by measuring the fluorescence of the liberated aminomethylcoumarin at […] using 390nm excitation, at 10 minutes. Percentage enzyme activity is calculated by comparison of this activity to that of a solution containing no inhibitor. Compounds are subsequently subjected to a dose response curve analysis in order to determine IC50 values for active compounds (where IC50 is the concentration of test compound causing 50 % inhibition of the enzymatic activity). Compounds of the invention typically have a pIC50 (negative logarithm of the IC50 concentration) for inhibition of human cathepsin K of more than 6, preferably more than 7 and most preferably a pIC50 of more than 8, such as for the compounds of Examples 1, 2a, 2b, 3, 5, 6, 8, 12, 14, 13, 16k, 16n, 16o, 17, 22a, 22b, 22c

Take `CC(C)N1CCN(c2cc(-c3cccc(C(F)(F)F)c3)nc(C#N)n2)CC1` [Example 3, 4-(4-Isopropyl-piperazin-1-yl)-6-(trifluoromethyl-phenyl)-pyrimidine-2-carbonitrile]: the IC50 was < 10 nM.
